Measurements as given in article PMC9127750, “Structure-based design of CDC42 effector interaction inhibitors for the treatment of cancer” (Cell reports, 2022).
“And” between values parts separate entries of the source, which are not always exact repeats. Equal values may be shown once.

Test system: WM3248 melanoma cells, 486 antibodies
Assay: Reverse phase protein arrays (RPPA)
Assay type: cell-based, Human
From the text: Pellets were snap frozen in liquid nitrogen and shipped to MD Anderson Cancer Center core RPPA facility for RPPA analysis (Table S5). Three biological replicates for each sample were generated.
Nomenclatures on the RPPA heatmaps: name_of_antibody.species_of_antibody.status_of_antibody. V - antibody validated; C - validation of antibody in progress; Q - antibody nonspecific; E – under evaluation; antibodies raised in M - mouse, G - goat, R - rabbit, or T - rat.

[1] = 20, replicates 1-3, normalized to 0
[2] = Norm_5: replicates 1-3 and Average, relative to 0

Structure (SMILES): CN(C)c1cccc(Nc2cc(-c3ccccc3)nc(C3CCNCC3)n2)c1 [ARN22089, N1,N1-dimethyl-N3-(6-phenyl-2-(piperidin-4-yl)pyrimidin-4-yl)benzene-1,3-diamine]
- eIF4E_pS209.R.V Norm_20 [1]: 0.954 and 0.835 and 1.321
- eIF4G.R.C Norm_20 [1]: 1.493 and 1.003 and 0.999
- MYH11.R.C Average (Norm_5, normalized to Norm_0): 1.033
- Myosin.IIa.R.C Average (Norm_5, normalized to Norm_0): 0.991
- Myosin.IIa_pS1943.R.V Average (Norm_5, normalized to Norm_0): 0.992
- Myt1.R.C Average (Norm_5, normalized to Norm_0): 1.030
- N.Cadherin.R.V Average (Norm_5, normalized to Norm_0): 0.967
- N.Ras.M.V Average (Norm_5, normalized to Norm_0): 0.979
- NDRG1_pT346.R.V Average (Norm_5, normalized to Norm_0): 1.270
- NDUFB4.R.V Average (Norm_5, normalized to Norm_0): 0.954
- NRF2.R.C Average (Norm_5, normalized to Norm_0): 1.024
- Notch1.R.V Average (Norm_5, normalized to Norm_0): 0.893
- Notch1.cleaved.R.V Average (Norm_5, normalized to Norm_0): 1.048
- Notch3.R.C Average (Norm_5, normalized to Norm_0): 0.987
- Oct.4.R.C Average (Norm_5, normalized to Norm_0): 1.097
- P.Cadherin.R.C Average (Norm_5, normalized to Norm_0): 1.185
- PAI.1.M.V Average (Norm_5, normalized to Norm_0): 0.899
- PAICS.R.C Average (Norm_5, normalized to Norm_0): 0.934
- PAK1.R.V Average (Norm_5, normalized to Norm_0): 0.952
- PAK4.R.V Average (Norm_5, normalized to Norm_0): 0.942
- PAK_pS474_S602_S560.R.V Average (Norm_5, normalized to Norm_0): 0.943
- PAK_pT423_T402.R.C Average (Norm_5, normalized to Norm_0): 0.942
- PAR.R.C Average (Norm_5, normalized to Norm_0): 2.806
- PARG.R.C Average (Norm_5, normalized to Norm_0): 1.053
- PAX6.R.V Average (Norm_5, normalized to Norm_0): 0.980
- PAX8.R.C Average (Norm_5, normalized to Norm_0): 0.929
- PCNA.M.C Average (Norm_5, normalized to Norm_0): 0.930
- PD.1.R.V Average (Norm_5, normalized to Norm_0): 0.933
- PD.L1.R.C Average (Norm_5, normalized to Norm_0): 1.049
- PDH.M.V Average (Norm_5, normalized to Norm_0): 0.971
- PDHA1.R.V Average (Norm_5, normalized to Norm_0): 1.000
- PDHK1.R.C Average (Norm_5, normalized to Norm_0): 1.047
- PDK1.R.V Average (Norm_5, normalized to Norm_0): 1.053
- PDK1_pS241.R.V Average (Norm_5, normalized to Norm_0): 1.123
- PEA.15.R.V Average (Norm_5, normalized to Norm_0): 0.989
- PEA.15_pS116.R.V Average (Norm_5, normalized to Norm_0): 0.945
- PERK.R.V Average (Norm_5, normalized to Norm_0): 0.967
- PGM1.R.V Average (Norm_5, normalized to Norm_0): 1.019
- PHLPP.R.V Average (Norm_5, normalized to Norm_0): 1.011
- PI3K.p85.R.C Average (Norm_5, normalized to Norm_0): 0.931
- PI3K.p110.a.R.C Average (Norm_5, normalized to Norm_0): 1.007
- PI3K.p110.b.M.C Average (Norm_5, normalized to Norm_0): 0.980
- PKA.a.R.V Average (Norm_5, normalized to Norm_0): 1.083
- PKC.a.b.II_pT638_T641.R.V Average (Norm_5, normalized to Norm_0): 0.910
- PKC.b.II_pS660.R.V Average (Norm_5, normalized to Norm_0): 1.083
- PKCa.R.V Average (Norm_5, normalized to Norm_0): 1.160
- PLC.gamma1.R.V Average (Norm_5, normalized to Norm_0): 1.065
- PLC.gamma1_pS1248.R.V Average (Norm_5, normalized to Norm_0): 1.197
- PLC.gamma2_pY759.R.V Average (Norm_5, normalized to Norm_0): 0.941
- PLK1.R.C Average (Norm_5, normalized to Norm_0): 0.892
- PMS2.R.V Average (Norm_5, normalized to Norm_0): 0.916
- PR.R.V Average (Norm_5, normalized to Norm_0): 0.959
- PRAS40.M.C Average (Norm_5, normalized to Norm_0): 0.988
- PRC1_pT481.R.C Average (Norm_5, normalized to Norm_0): 0.915
- Patched.R.C Average (Norm_5, normalized to Norm_0): 1.046
- Paxillin.R.C Average (Norm_5, normalized to Norm_0): 1.013
- Pdcd4.R.C Average (Norm_5, normalized to Norm_0): 1.126
- Porin.M.V Average (Norm_5, normalized to Norm_0): 0.959
- p21.R.C Average (Norm_5, normalized to Norm_0): 0.958
- p27.Kip1.R.C Average (Norm_5, normalized to Norm_0): 0.986
- p27_pT157.R.C Average (Norm_5, normalized to Norm_0): 1.081
- p27_pT198.R.V Average (Norm_5, normalized to Norm_0): 1.051
- p38.MAPK._pT180_Y182.R.V Average (Norm_5, normalized to Norm_0): 1.202
- p38.a.M.V Average (Norm_5, normalized to Norm_0): 0.984
- p44.42.MAPK.R.V Average (Norm_5, normalized to Norm_0): 1.160
- p53.R.C Average (Norm_5, normalized to Norm_0): 1.083
- p70.S6K1.R.V Average (Norm_5, normalized to Norm_0): 1.109
- p90RSK_pT573.R.C Average (Norm_5, normalized to Norm_0): 0.871
- PREX1.R.V normalized RPPA signal [2]: 1.167 and 1.060 and 1.135 and 1.121
- PTEN.R.V normalized RPPA signal [2]: 1.061 and 1.012 and 1.047
- PTPN12.R.V normalized RPPA signal [2]: 1.010 and 0.988 and 1.023
- PYGB.R.V normalized RPPA signal [2]: 1.017 and 1.164 and 0.766 and 0.982
- PYGM.M.C normalized RPPA signal [2]: 0.997 and 1.153 and 0.846 and 0.999
- Puma.R.C normalized RPPA signal [2]: 1.064 and 1.136 and 0.836 and 1.012
- Pyk2_pY402.R.C normalized RPPA signal [2]: 1.133 and 1.024 and 1.065
- RBM15.R.V normalized RPPA signal [2]: 0.984 and 1.128
- RIP3.R.C normalized RPPA signal [2]: 1.061 and 1.027 and 1.055 and 1.048
- RIP.R.C normalized RPPA signal [2]: 0.916 and 0.977 and 0.799 and 0.897
- RPA32.R.V normalized RPPA signal [2]: 1.150 and 0.846 and 1.011
- RPA32_pS4_S8.R.C normalized RPPA signal [2]: 1.171 and 1.234 and 0.878
- RRM1.R.C normalized RPPA signal [2]: 0.936 and 0.952 and 0.975
- RRM2.R.C normalized RPPA signal [2]: 0.907 and 1.001 and 0.922 and 0.943
